# Reference: US20180022780A1, “STABILIZATION ADRENOMEDULLIN DERIVATIVES AND USE THEREOF” (priority 2014, published 2018)
# pEC50: −log10 of the molar value. Numbered stars: 1 amine (or outer) side, 2 acyl side, 3 side chain; on linkers, the order of the positions; unused ones are H or OH. Bridge positions count the residues as written; N and C are the ends. Square brackets hold non-standard residues; d marks the D form. Peptide text beside a SMILES is read from it. * marks the point of attachment. Abu(4-yl) = O=C([C@H](CC[*:3])N[*:1])[*:2]; Palmitoyl = CCCCCCCCCCCCCCCC(=O)*; NMeK = CN[C@@H](CCCCN)C(=O)O; Dap = NC[C@H](N)C(=O)O
# Target: T1, CLR fused to EYFP and RAMP2 fused to ECFP (Homo sapiens, UniProt O60895+Q16602)
# T1 construct: EYFP; ECFP; expressed in transfected cells; host or cells: HEK-293 cells, transient co-transfection
# T1 sequence (Q16602 23-461): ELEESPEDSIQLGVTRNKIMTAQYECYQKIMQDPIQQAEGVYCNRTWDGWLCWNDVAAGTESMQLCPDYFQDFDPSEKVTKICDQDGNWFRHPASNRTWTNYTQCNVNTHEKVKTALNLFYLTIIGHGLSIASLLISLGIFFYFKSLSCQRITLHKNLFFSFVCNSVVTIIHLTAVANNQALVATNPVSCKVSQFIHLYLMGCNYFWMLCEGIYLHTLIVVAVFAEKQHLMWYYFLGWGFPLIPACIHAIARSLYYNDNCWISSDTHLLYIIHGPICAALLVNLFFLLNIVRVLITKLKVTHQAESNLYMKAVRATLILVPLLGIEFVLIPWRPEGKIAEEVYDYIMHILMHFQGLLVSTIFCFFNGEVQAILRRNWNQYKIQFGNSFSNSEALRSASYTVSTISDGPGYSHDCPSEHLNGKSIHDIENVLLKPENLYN
# T1 sequence (O60895 43-175): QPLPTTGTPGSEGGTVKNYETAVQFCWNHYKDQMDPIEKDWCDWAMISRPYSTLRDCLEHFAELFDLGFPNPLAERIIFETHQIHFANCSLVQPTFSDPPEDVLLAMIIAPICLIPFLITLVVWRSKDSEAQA
# Test: cAMP assay (CRE luciferase reporter, HEK-293 cells transiently co-transfected with CLR and RAMP2)
# Type: cell-based
# Details: Table 2, cAMP assay; HEK-293, CLR/RAMP2, CRE luciferase, 3 h stimulation, normalized to [G^14]ADM(14-52)
# Experimental: HEK-293 cells (human embryonic kidney cells) were cultured in Ham's F-12/DMEM (1/1; v/v) containing 15% FCS under humidified atmosphere at 37° C. and 5% CO2 in 75 cm^2 cell culture flasks.
# Cells were cultured in 75 cm^2 flasks to 70-80% confluency. 45 μl Metafectene® Pro was diluted in 900 μl Ham's F-12/DMEM (1/1; v/v) and incubated for 20 min at room temperature. 9000 ng plasmid containing DNA of CLR fused to EYFP and 3000 ng plasmid containing DNA of RAMP2 fused to ECFP were dissolved in 900 μl Ham's F-12/DMEM (1/1; v/v). The plasmid solution was mixed with the Metafectene® Pro solution and incubated for 25 min at room temperature. Medium was removed from the cells and replaced by 6 ml Ham's F-12/DMEM (1/1; v/v) containing 15% FCS. After addition of transfection solution the cells were incubated for 3 h under humidified atmosphere at 37° C. and 5% CO2.
# For the second transfection 45 μl Metafectene® Pro was diluted in 900 μl Ham's F-12/DMEM (1/1; v/v) and incubated for 20 min at room temperature. 12000 ng of pGL4.29[luc2P/CRE/Hygro] plasmid containing DNA for the luciferase reporter gene luc2P (with CRE promotor region) were dissolved in 900 μl Ham's F-12/DMEM (1/1; v/v). The plasmid solution was mixed with the Metafectene® Pro solution and incubated for 25 min at room temperature. Medium was removed from the cells and replaced by 6 ml Ham's F-12/DMEM (1/1; v/v) containing 15% FCS. After addition of transfection solution the cells were incubated under humidified atmosphere at 37° C. and 5% CO2 over night.
# For the coating of 96-well-plates 50 μl of a Poly-D-Lysine solution (1 ml stock solution of Poly-D-Lysin-hydrobromid/10 ml DPBS) were pipetted in each well and incubated for 40 min. After removal of the Poly-D-Lysine each well was washed with 50 μl DPBS. Transiently transfected cells were detached from the cell culture flask by removal of the medium, twofold washing with 5 m1 DPBS and resuspending in 13 ml Ham's F-12/DMEM (1/1; v/v) containing 15% FCS. 90000 to 120000 cells in 150 μl Ham's F-12/DMEM (1/1; v/v) containing 15% FCS were seeded per well and the plates were incubated under humidified atmosphere at 37° C. and 5% CO2 over night.
# For each ligand a serial dilution giving eight different concentrations was prepared using Ham's F-12/DMEM (1/1; v/v). Before stimulation the medium on the cells was replaced by 100 μl Ham's F-12/DMEM (1/1; v/v) and the plates were incubated for 1 h under humidified atmosphere at 37° C. and 5% CO2. For stimulation the medium was removed again and the cells were incubated for 3 h in 80 μl of ligand-solution under humidified atmosphere at 37° C. and 5% CO2. In addition 80 μl of a 5 μM forskolin solution (in Ham's F-12/DMEM (1/1; v/v)) was used as a positive control and 80 μl of Ham's F-12/DMEM (1/1; v/v) as a negative control. Each concentration and the controls were tested as triplicates.
# After 3 h of stimulation, the solutions were removed and the cells were washed with 50 μl of Ham's F-12/DMEM (1/1; v/v) per well. After 10 min incubation in 30 μl of Ham's F-12/DMEM (1/1; v/v) at room temperature, 30 μl of luciferase-solution (ONE-Glo™ Luciferase Assay System) was added and the luminescence was directly measured using an Infinite M200 (Tecan).
# Data analysis of the luminescence measurement was carried out with GraphPad Prism 5. Therefore the measured luminescence values of each plate were first corrected on the base of the respective average of forskolin stimulation. Afterwards they were normalized to [G^14]ADM(14-52) which was used as standard peptide in every assay. After correction and normalization data was analysed using non-linear regression giving dose-response curves for each tested ligand.
row,SMILES,pEC50
1,"CCCCCCCCCCCCCCCC(=O)NCCCC[C@H](N)C(=O)NCC(=O)N[C@H]1CNC(=O)CC[C@@H](C(=O)N[C@H](C(=O)N[C@H](C(=O)N[C@@H](CCC(N)=O)C(=O)N[C@@H](CCCCN)C(=O)N[C@@H](CC(C)C)C(=O)N[C@@H](C)C(=O)N[C@@H](Cc2c[nH]cn2)C(=O)N[C@@H](CCC(N)=O)C(=O)N[C@H](C(=O)N[C@@H](Cc2ccc(O)cc2)C(=O)N[C@@H](CCC(N)=O)C(=O)N[C@@H](Cc2ccccc2)C(=O)N[C@H](C(=O)N[C@@H](CC(=O)O)C(=O)N[C@@H](CCCCN)C(=O)N[C@@H](CC(=O)O)C(=O)N[C@@H](CCCCN)C(=O)N[C@@H](CC(=O)O)C(=O)N[C@@H](CC(N)=O)C(=O)N[C@H](C(=O)N[C@@H](C)C(=O)N2CCC[C@H]2C(=O)N[C@@H](CCCNC(=N)N)C(=O)N[C@@H](CO)C(=O)N(C)[C@@H](CCCCN)C(=O)N[C@H](C(=O)N[C@@H](CO)C(=O)N2CCC[C@H]2C(=O)N[C@@H](CCC(N)=O)C(=O)NCC(=O)N[C@@H](Cc2ccc(O)cc2)C(N)=O)[C@@H](C)CC)C(C)C)[C@@H](C)O)[C@@H](C)CC)C(C)C)[C@@H](C)O)NC(=O)[C@H]([C@@H](C)O)NC(=O)CNC(=O)[C@H](Cc2ccccc2)NC(=O)[C@H](CCCNC(=N)N)NC1=O [Example 27, ((3S,9S,12S,15S,21S)-15-(2-((S)-2-amino-6-palmitamidohexanamido)acetamido)-9-benzyl-12-(3-guanidinopropyl)-3-((R)-1-hydroxyethyl)-2,5,8,11,14,18-hexaoxo-1,4,7,10,13,17-hexaazacyclohenicosane-21-carbonyl)-L-threonyl-[N-Me-K^46]ADM(22-52)] (H-K(Palmitoyl)G[Dap]RFGTETVQKLAHQIYQFTDKDKDNVAPRS[NMeK]ISPQGY-NH2; lactam 3-8)",8.47
2,"CC[C@H](C)[C@H](NC(=O)[C@H](CCC(N)=O)NC(=O)[C@H](Cc1c[nH]cn1)NC(=O)[C@H](C)NC(=O)[C@H](CC(C)C)NC(=O)[C@H](CCCCN)NC(=O)[C@H](CCC(N)=O)NC(=O)[C@@H](NC(=O)[C@@H](NC(=O)[C@@H]1CC(=O)NC[C@H](NC(=O)CNC(=O)CN)C(=O)N[C@@H](CCCNC(=N)N)C(=O)N[C@@H](Cc2ccccc2)C(=O)NCC(=O)N[C@@H]([C@@H](C)O)C(=O)N1)[C@@H](C)O)C(C)C)C(=O)N[C@@H](Cc1ccc(O)cc1)C(=O)N[C@@H](CCC(N)=O)C(=O)N[C@@H](Cc1ccccc1)C(=O)N[C@H](C(=O)N[C@@H](CC(=O)O)C(=O)N[C@@H](CCCCN)C(=O)N[C@@H](CC(=O)O)C(=O)N[C@@H](CCCCN)C(=O)N[C@@H](CC(=O)O)C(=O)N[C@@H](CC(N)=O)C(=O)N[C@H](C(=O)N[C@@H](C)C(=O)N1CCC[C@H]1C(=O)N[C@@H](CCCNC(=N)N)C(=O)N[C@@H](CO)C(=O)N[C@@H](CCCCN)C(=O)N[C@H](C(=O)N[C@@H](CO)C(=O)N1CCC[C@H]1C(=O)N[C@@H](CCC(N)=O)C(=O)NCC(=O)N[C@@H](Cc1ccc(O)cc1)C(N)=O)[C@@H](C)CC)C(C)C)[C@@H](C)O [Example 3, ((2S,5S,11S,14S,19S)-19-(2-(2-aminoacetamido)acetamido)-5-benzyl-2-(3-guanidinopropyl)-11-((R)-1-hydroxyethyl)-3,6,9,12,16,20-hexaoxo-1,4,7,10,13,17-hexaazacycloicosane-14-carbonyl)-L-threonyl-ADM(22-52)] (H-GG[Dap]RFGTDTVQKLAHQIYQFTDKDKDNVAPRSKISPQGY-NH2; lactam 3-8)",7.17
3,"CC[C@H](C)[C@H](NC(=O)[C@H](CCC(N)=O)NC(=O)[C@H](Cc1c[nH]cn1)NC(=O)[C@H](C)NC(=O)[C@H](CC(C)C)NC(=O)[C@H](CCCCN)NC(=O)[C@H](CCC(N)=O)NC(=O)[C@@H](NC(=O)[C@@H](NC(=O)[C@@H]1CCSC[C@H](NC(=O)CNC(=O)CN)C(=O)N[C@@H](CCCNC(=N)N)C(=O)N[C@@H](Cc2ccccc2)C(=O)NCC(=O)N[C@@H]([C@@H](C)O)C(=O)N1)[C@@H](C)O)C(C)C)C(=O)N[C@@H](Cc1ccc(O)cc1)C(=O)N[C@@H](CCC(N)=O)C(=O)N[C@@H](Cc1ccccc1)C(=O)N[C@H](C(=O)N[C@@H](CC(=O)O)C(=O)N[C@@H](CCCCN)C(=O)N[C@@H](CC(=O)O)C(=O)N[C@@H](CCCCN)C(=O)N[C@@H](CC(=O)O)C(=O)N[C@@H](CC(N)=O)C(=O)N[C@H](C(=O)N[C@@H](C)C(=O)N1CCC[C@H]1C(=O)N[C@@H](CCCNC(=N)N)C(=O)N[C@@H](CO)C(=O)N[C@@H](CCCCN)C(=O)N[C@H](C(=O)N[C@@H](CO)C(=O)N1CCC[C@H]1C(=O)N[C@@H](CCC(N)=O)C(=O)NCC(=O)N[C@@H](Cc1ccc(O)cc1)C(N)=O)[C@@H](C)CC)C(C)C)[C@@H](C)O [Example 15, ((4S,7S,13S,16S,19R)-19-(2-(2-aminoacetamido)acetamido)-13-benzyl-16-(3-guanidinopropyl)-7-((R)-1-hydroxyethyl)-6,9,12,15,18-pentaoxo-1-thia-5,8,11,14,17-pentaazacycloicosane-4-carbonyl)-L-threonyl-ADM(22-52)] (H-GGCRFGT[Abu(4-yl)]TVQKLAHQIYQFTDKDKDNVAPRSKISPQGY-NH2; thioether 3-8)",8.48
4,"CCCCCCCCCCCCCCCC(=O)NCCCC[C@H](N)C(=O)NCC(=O)N[C@H]1CNC(=O)CC[C@@H](C(=O)N[C@H](C(=O)N[C@H](C(=O)N[C@@H](CCC(N)=O)C(=O)N[C@@H](CCCCN)C(=O)N[C@@H](CC(C)C)C(=O)N[C@@H](C)C(=O)N[C@@H](Cc2c[nH]cn2)C(=O)N[C@@H](CCC(N)=O)C(=O)N[C@H](C(=O)N[C@@H](Cc2ccc(O)cc2)C(=O)N[C@@H](CCC(N)=O)C(=O)N[C@@H](Cc2ccccc2)C(=O)N[C@H](C(=O)N[C@@H](CC(=O)O)C(=O)N[C@@H](CCCCN)C(=O)N[C@@H](CC(=O)O)C(=O)N[C@@H](CCCCN)C(=O)N[C@@H](CC(=O)O)C(=O)N[C@@H](CC(N)=O)C(=O)N[C@H](C(=O)N[C@@H](C)C(=O)N2CCC[C@H]2C(=O)N[C@@H](CCCNC(=N)N)C(=O)N[C@@H](CO)C(=O)N[C@@H](CCCCN)C(=O)N[C@H](C(=O)N[C@@H](CO)C(=O)N2CCC[C@H]2C(=O)N[C@@H](CCC(N)=O)C(=O)NCC(=O)N[C@@H](Cc2ccc(O)cc2)C(N)=O)[C@@H](C)CC)C(C)C)[C@@H](C)O)[C@@H](C)CC)C(C)C)[C@@H](C)O)NC(=O)[C@H]([C@@H](C)O)NC(=O)CNC(=O)[C@H](Cc2ccccc2)NC(=O)[C@H](CCCNC(=N)N)NC1=O [Example 18, ((3S,9S,12S,15S,21S)-15-(2-((S)-2-amino-6-palmitamidohexanamido)acetamido)-9-benzyl-12-(3-guanidinopropyl)-3-((R)-1-hydroxyethyl)-2,5,8,11,14,18-hexaoxo-1,4,7,10,13,17-hexaazacyclohenicosane-21-carbonyl)-L-threonyl-ADM(22-52)] (H-K(Palmitoyl)G[Dap]RFGTETVQKLAHQIYQFTDKDKDNVAPRSKISPQGY-NH2; lactam 3-8)",8.70
